Reference: PMC11062894, “Protein-based bandpass filters for controlling cellular signaling with chemical inputs” (Nature Chemical Biology, 2023)

Tested on: GEMS receptors with CBPA11 (BclXL–LD3 and BclXLhigh variants), STAT3-driven SEAP in HEK293T cells
Experiment: GEMS SEAP reporter assay, CBPA11 (BclXLhigh, LD3-v and BclXL-v variants) with A-1155463
Assay type: cell-based
Parameters: key to Raw data (SEAP) / SEAP, replicate values / Raw data of Figure 5b / Raw data Figure 5e / Raw data of Independent repeat of CBPA11-v1 vs CBPA11-v1-LD3v3 / Raw data of Independent repeat of CBPA11-v3 vs CBPA11-v3-LD3v3 / Raw data of Figure 5b, CBPA11-v1-LD3v3 (SEAP reporter raw value, single replicate) / Raw data of Figure 5b, CBPA11-v1 (SEAP reporter raw value, single replicate): SEAP activity in U/L in culture supernatant
Details: SuppFigure 9c
Excerpt: To rationally design a CBP responding to a chemical input, we used BclXL as the druglow receptor, LD3 as the designed binder and a designed BclXL variant as the drughigh receptor (referred to as BclXLhigh) to construct a CBP responsive to BclXL inhibitors (Fig. 4a). To design BclXLhigh, we used a multistate design computational protocol described elsewhere[26] […] Thus, BclXLhigh-v(1–3) were chosen as the functional drughigh receptors, resulting in three A-1155463-controlled CBPs (referred to as CBPA11-v(1–3)) (Fig. 4c–e).
HEK293T cells were seeded in a 96-well plate 24 h before transfection. The transfection mix in each well consisted of 3 ng of constitutive human CMV promoter driven mammalian STAT3 expression vector (PhCMV-STAT3-pA), 30 ng of STAT3-induced reporter expression (OStat3-PhCMVmin-SEAP-pA) and 50 ng of expression vectors for each GEMS receptor chain (PSV40-IgK-(drughigh receptor)-EpoRm-IL-6RBm-pA and PSV40-IgK-(druglow receptor-GGGGSX3-LD3)-EpoRm-IL-6RBm-pA). For the specific drughigh receptor and druglow receptor used in the different cellular assays, they are indicated as wild type or with mutations. Then, plasmid DNA was mixed with 50 μl opti-MEM (Thermo Fisher) and 600 ng of polyethyleneimine (Polysciences, catalog no. 24765-1). For drug treatment experiments, drugs were added 12 h post-transfection and incubated with cells for 24 h before the SEAP reporter detection assay.
SEAP activity (U l^−1) in cell culture supernatants was quantified by kinetic measurements at 405 nm (1 minute per measurement for 30 cycles) of absorbance increase due to phosphatase-mediated hydrolysis of para-nitrophenyl phosphate (pNPP).
Binding affinities of SPR drug competition assays were calculated using three-parameter nonlinear regression in GraphPad Prism (v.8.3.0). Representative data of cell assays are presented as individual values and mean values (bars). n = 3 refers to biological replicates. All IC50 or EC50 values of cell assays reported were calculated using four-parameter nonlinear regression ± s.d. Bandpass features of cutoff concentrations and Bandwidth90% were estimated based on the curve fitted using bell-shaped curve nonlinear regression in GraphPad Prism (v.8.3.0). […]
Supplementary Figure 4: Design, screening and validation of BclXLhigh variants. a) Screening of BclXLhigh variants in the GEMS platform. […]
Dissociation constant measurement of BclXLhigh-v(1-3) and LD3. Equilibrium curves are fitted using […]
BclXLhigh-v1 (purple), BclXLhigh-v2 (blue), […]
a) Bcl2high-based bandpass filter designs were developed and to respond to different concentrations of […]
corresponding inhibitor. c) Screening of Bcl2high-based bandpass filter variants in the GEMS platform.
The designed binder LD3 was fused to the druglow-receptor (PSV40-IgK-Bcl2-LD3-EpoRm-IL-6RBm-pA) in one EpoR chain and Bcl2high variants with the insensitive Bcl2 (iBcl2) as control in the other EpoR chain (PSV40-IgK-Bcl2high-EpoRm-IL-6RBm-pA). HEK293T cells were transfected with indicated […]
the mean of six biological replicates ± s.d., overlaid with a scatter dot plot of the original data points.
(1 picture or pasted object on this page, not shown here)
Supplementary Figure 6: Binding affinities and drug resistances of Bcl2high-v(2,4,5) assessed by […]
a) Measurement of dissociation constants for Bcl2high-v(2,4,5) and LD3 interactions. Equilibrium curves […]
Bcl2high-v(2,4,5) measured by SPR. 5 μM of Bcl2 or indicated variants were mixed with 10 μM of […]
Bcl2high-v2 (red), Bcl2high-v4
Supplementary Figure 7: Screening of LD3 variants in CBPA11-v(1-3) and raw data of CBPA11-v(1,3) with LD3-v3 variant. a-c) Screening of LD3 and LD3-v(1-3) variants in complex with BclXL for more sensitive CBPA11-v1 (a), CBPA11-v2 (b), CBPA11-v3 (c) in the GEMS platform. The LD3 variants replaced the role of LD3 (PSV40-IgK-BclXL-LD3-v(1-3)-EpoRm-IL-6RBm-pA) in one EpoR chain and BclXLhigh-v(1-3) in the other EpoR chain (PSV40-IgK-BclXLhigh-V(1-3)-EpoRm-IL-6RBm-pA). HEK293T cells were transfected with […]

## CN(C)CC#Cc1ccc(OCCCc2sc(N3CCc4cccc(C(=O)Nc5nc6ccccc6s5)c4C3)nc2C(=O)O)c(F)c1 [A-1155463]
LD3, A-1155463 316 nM
  Raw data (SEAP): 61.2138
LD3, A-1155463 1000 nM
  Normalized data (SEAP): 55.4364
  Raw data (SEAP): 44.3919
LD3, A-1155463 3160 nM
  Normalized data (SEAP): 36.9566
  Raw data (SEAP): 29.5938
LD3, A-1155463 10000 nM
  Normalized data (SEAP): 17.181
  Raw data (SEAP): 13.758
LD3v1, A-1155463 1 nM
  Normalized data (SEAP): 5.697
  Raw data (SEAP): 3.397
LD3v1, A-1155463 3.16 nM
  Normalized data (SEAP): 9.008
  Raw data (SEAP): 5.371
LD3v1, A-1155463 10 nM
  Normalized data (SEAP): 34.145
  Raw data (SEAP): 20.3588
LD3v1, A-1155463 31.6 nM
  Normalized data (SEAP): 55.6344
  Raw data (SEAP): 33.1716
LD3v1, A-1155463 100 nM
  Normalized data (SEAP): 100
  Raw data (SEAP): 59.6244
LD3v1, A-1155463 316 nM
  Normalized data (SEAP): 84.0823
  Raw data (SEAP): 50.1335
LD3v1, A-1155463 1000 nM
  Normalized data (SEAP): 65.4287
  Raw data (SEAP): 39.0114
LD3v1, A-1155463 3160 nM
  Normalized data (SEAP): 35.6708
  Raw data (SEAP): 21.2685
LD3v1, A-1155463 10000 nM
  Normalized data (SEAP): 16.487
  Raw data (SEAP): 9.83
LD3v2, A-1155463 1 nM
  Normalized data (SEAP): 18.0278
  Raw data (SEAP): 19.4289
LD3v2, A-1155463 3.16 nM
  Normalized data (SEAP): 13.8407
  Raw data (SEAP): 14.9163
LD3v2, A-1155463 10 nM
  Normalized data (SEAP): 72.4321
  Raw data (SEAP): 78.0614
LD3v2, A-1155463 31.6 nM
  Normalized data (SEAP): 98.2639
  Raw data (SEAP): 105.901
LD3v2, A-1155463 100 nM
  Normalized data (SEAP): 100
  Raw data (SEAP): 107.772
LD3v2, A-1155463 316 nM
  Normalized data (SEAP): 90.2158
  Raw data (SEAP): 97.2273
LD3v2, A-1155463 1000 nM
  Normalized data (SEAP): 79.3099
  Raw data (SEAP): 85.4738
LD3v2, A-1155463 3160 nM
  Normalized data (SEAP): 45.5807
  Raw data (SEAP): 49.1232
LD3v2, A-1155463 10000 nM
  Normalized data (SEAP): 26.3886
  Raw data (SEAP): 28.4395
LD3v3, A-1155463 1 nM
  Normalized data (SEAP): 53.0121
  Raw data (SEAP): 3.893
LD3v3, A-1155463 3.16 nM
  Normalized data (SEAP): 45.4436
  Raw data (SEAP): 3.337
